Data: PubChem BioAssay AID1963827 (Molecular Pharmacology Branch, DTP, NCI, 2024)
pIC50: −log10 of the molar value.

Test system: 994946-033-R-J1-PDC complex spheroid viability
Test: Anticancer human tumor 994946-033-R-J1-PDC patient-derived melanoma cell line growth inhibition [POLQ]
Conditions: for pIC50: curve of first compound; for viability, T/C: stronger effect = lower value
In short: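 Growth inhibition in 3D: complex spheroids (tumor PDC, HUVEC, MSC) treated with POLQ inhibitor combinations; where Cmax unknown, highest tested concentration 10 microM, except SN-38 at 1 microM.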

[1] = second compound 0.0316 µM, first compound 0.0316 µM
[2] = second compound 0.0316 µM, first compound 0.1 µM
[3] = second compound 0.1 µM, first compound 0.0316 µM
[4] = second compound 0.1 µM, first compound 0.1 µM
[5] = second compound 0.316 µM, first compound 0.0316 µM
[6] = second compound 0.316 µM, first compound 0.1 µM
[7] = second compound 1 µM, first compound 0.0316 µM
[8] = second compound 1 µM, first compound 0.1 µM
[9] = second compound 3.16 µM, first compound 0.0316 µM
[10] = second compound 3.16 µM, first compound 0.1 µM
[11] = second compound 10 µM, first compound 0.0316 µM
[12] = second compound 10 µM, first compound 0.1 µM
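Also: spheroids exposed to drugs for 7 days.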
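For viability, T/C in this document: 100% = DMSO vehicle treated spheroids.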

Structure (SMILES): Cn1ncnc1[C@H]1c2n[nH]c(=O)c3cc(F)cc(c23)N[C@@H]1c1ccc(F)cc1 + COC1C(OC(N)=O)C(O)C(Oc2ccc3c(O)c(NC(=O)c4ccc(O)c(CC=C(C)C)c4)c(=O)oc3c2C)OC1(C)C
- pIC50 (second compound 0.0316 µM): < 7.00
- pIC50 (second compound 0.1 µM): < 7.00
- pIC50 (second compound 0.316 µM): < 7.00
- pIC50 (second compound 1 µM): < 7.00
- pIC50 (second compound 3.16 µM): < 7.00
- pIC50 (second compound 10 µM): < 7.00
- viability, T/C (second compound 0.0316 µM, first compound 0.000316 µM): 92.5%
- viability, T/C (second compound 0.0316 µM, first compound 0.001 µM): 96.1%
- viability, T/C (second compound 0.0316 µM, first compound 0.00316 µM): 123%
- viability, T/C (second compound 0.0316 µM, first compound 0.01 µM): 93.6%
- viability, T/C [1]: 71.5%
- viability, T/C [2]: 63.2%
- viability, T/C (second compound 0.1 µM, first compound 0.000316 µM): 97.7%
- viability, T/C (second compound 0.1 µM, first compound 0.001 µM): 81.9%
- viability, T/C (second compound 0.1 µM, first compound 0.00316 µM): 93.4%
- viability, T/C (second compound 0.1 µM, first compound 0.01 µM): 94.6%
- viability, T/C [3]: 72.8%
- viability, T/C [4]: 55.6%
- viability, T/C (second compound 0.316 µM, first compound 0.000316 µM): 93.7%
- viability, T/C (second compound 0.316 µM, first compound 0.001 µM): 101%
- viability, T/C (second compound 0.316 µM, first compound 0.00316 µM): 93.3%
- viability, T/C (second compound 0.316 µM, first compound 0.01 µM): 76.6%
- viability, T/C [5]: 66.3%
- viability, T/C [6]: 77.7%
- viability, T/C (second compound 1 µM, first compound 0.000316 µM): 91.4%
- viability, T/C (second compound 1 µM, first compound 0.001 µM): 103%
- viability, T/C (second compound 1 µM, first compound 0.00316 µM): 104%
- viability, T/C (second compound 1 µM, first compound 0.01 µM): 106%
- viability, T/C [7]: 59.9%
- viability, T/C [8]: 66.4%
- viability, T/C (second compound 3.16 µM, first compound 0.000316 µM): 106%
- viability, T/C (second compound 3.16 µM, first compound 0.001 µM): 81.2%
- viability, T/C (second compound 3.16 µM, first compound 0.00316 µM): 117%
- viability, T/C (second compound 3.16 µM, first compound 0.01 µM): 82.3%
- viability, T/C [9]: 70.4%
- viability, T/C [10]: 65.2%
- viability, T/C (second compound 10 µM, first compound 0.000316 µM): 89.5%
- viability, T/C (second compound 10 µM, first compound 0.001 µM): 102%
- viability, T/C (second compound 10 µM, first compound 0.00316 µM): 110%
- viability, T/C (second compound 10 µM, first compound 0.01 µM): 79.5%
- viability, T/C [11]: 78.4%
- viability, T/C [12]: 71.8%

Structure (SMILES): COc1cc2cc(C(=O)CCC(=O)O)sc2cc1OC + Cc1cccc(N(C)C(=O)C2C(O)CCN2c2nc(C)cc(C(F)(F)F)c2C#N)c1
- pIC50 (second compound 0.0316 µM): < 5.00
- pIC50 (second compound 0.1 µM): < 5.00
- pIC50 (second compound 0.316 µM): < 5.00
- pIC50 (second compound 1 µM): < 5.00
- pIC50 (second compound 3.16 µM): < 5.00
- pIC50 (second compound 10 µM): < 5.00
- viability, T/C [1]: 79.5%
- viability, T/C [2]: 96.4%
- viability, T/C (second compound 0.0316 µM, first compound 0.316 µM): 130%
- viability, T/C (second compound 0.0316 µM, first compound 1 µM): 74.9%
- viability, T/C (second compound 0.0316 µM, first compound 3.16 µM): 91%
- viability, T/C (second compound 0.0316 µM, first compound 10 µM): 82.3%
- viability, T/C [3]: 116%
- viability, T/C [4]: 91.4%
- viability, T/C (second compound 0.1 µM, first compound 0.316 µM): 102%
- viability, T/C (second compound 0.1 µM, first compound 1 µM): 88.5%
- viability, T/C (second compound 0.1 µM, first compound 3.16 µM): 98.8%
- viability, T/C (second compound 0.1 µM, first compound 10 µM): 92.8%
- viability, T/C [5]: 67.7%
- viability, T/C [6]: 96.1%
- viability, T/C (second compound 0.316 µM, first compound 0.316 µM): 70.5%
- viability, T/C (second compound 0.316 µM, first compound 1 µM): 88.2%
- viability, T/C (second compound 0.316 µM, first compound 3.16 µM): 79.7%
- viability, T/C (second compound 0.316 µM, first compound 10 µM): 84.3%
- viability, T/C [7]: 67.6%
- viability, T/C [8]: 86.9%
- viability, T/C (second compound 1 µM, first compound 0.316 µM): 72.9%
- viability, T/C (second compound 1 µM, first compound 1 µM): 103%
- viability, T/C (second compound 1 µM, first compound 3.16 µM): 72.3%
- viability, T/C (second compound 1 µM, first compound 10 µM): 80.9%
- viability, T/C [9]: 120%
- viability, T/C [10]: 93.4%
- viability, T/C (second compound 3.16 µM, first compound 0.316 µM): 101%
- viability, T/C (second compound 3.16 µM, first compound 1 µM): 94.4%
- viability, T/C (second compound 3.16 µM, first compound 3.16 µM): 110%
- viability, T/C (second compound 3.16 µM, first compound 10 µM): 94.1%
- viability, T/C [11]: 97.6%
- viability, T/C [12]: 94.4%
- viability, T/C (second compound 10 µM, first compound 0.316 µM): 92.9%
- viability, T/C (second compound 10 µM, first compound 1 µM): 86.3%
- viability, T/C (second compound 10 µM, first compound 3.16 µM): 87.8%
- viability, T/C (second compound 10 µM, first compound 10 µM): 76.7%
